From ChEMBL document CHEMBL5634141 (Eur J Med Chem, 2023)
Activity calls are given as the source filed them. No cut-off for these calls is given here.

Columns and labels:
NCI-H358 [1] = test: Antiproliferative activity against human NCI-H358 cells expressing KRAS G12C mutant assessed as relative cell viability at 50 nM incubated for 72 hrs by CCK-8 assay; type: functional; conditions: read-out: Activity
Calu-1 [2] = test: Antiproliferative activity against human Calu-1 cells expressing KRAS G12C mutant assessed as relative cell viability at 50 nM incubated for 72 hrs by CCK-8 assay; type: functional; conditions: read-out: Activity
NCI-H23 [3] = test: Antiproliferative activity against human NCI-H23 cells expressing KRAS G12C mutant assessed as relative cell viability at 50 nM incubated for 72 hrs by CCK-8 assay; type: functional; conditions: read-out: Activity
SW837 [4] = test: Antiproliferative activity against human SW837 cells expressing KRAS G12C mutant assessed as relative cell viability at 50 nM incubated for 72 hrs by CCK-8 assay; type: functional; conditions: read-out: Activity
MIA PaCa-2 [5] = test: Antiproliferative activity against human MIA PaCa-2 cells expressing KRAS G12C mutant assessed as relative cell viability at 50 nM incubated for 72 hrs by CCK-8 assay; type: functional; conditions: read-out: Activity
ASPC1 = test: Antiproliferative activity against human ASPC1 cells expressing KRAS G12D mutant assessed as inhibition of cell growth incubated for 72 hrs by CCK-8 assay; type: functional, cell-based; conditions: ASPC1, 72 h
[6] = Cytotoxicity against HEK293T cells assessed as inhibition of cell growth incubated for 72 hrs by CCK-8 assay; type: toxicity, cell-based, HEK-293T; conditions: human
MIA PaCa-2 [7] = test: Antiproliferative activity against human MIA PaCa-2 cells expressing KRAS G12C mutant assessed as inhibition of cell growth incubated for 72 hrs by CCK-8 assay; type: functional, cell-based; conditions: MIA PaCa-2, 72 h
HepG2 = test: Antiproliferative activity against human HepG2 cells expressing KRAS assessed as inhibition of cell growth incubated for 72 hrs by CCK-8 assay; type: functional, cell-based; conditions: HepG2, 72 h
NCI-H358 [8] = test: Antiproliferative activity against human NCI-H358 cells expressing KRAS G12C mutant assessed as inhibition of cell growth incubated for 72 hrs by CCK-8 assay; type: functional, cell-based; conditions: NCI-H358, 72 h
NCI-H23 [9] = test: Antiproliferative activity against human NCI-H23 cells expressing KRAS G12C mutant assessed as relative cell viability at 100 nM incubated for 72 hrs by CCK-8 assay; type: functional; conditions: read-out: Activity
NCI-H358 [10] = test: Antiproliferative activity against human NCI-H358 cells expressing KRAS G12C mutant assessed as relative cell viability at 100 nM incubated for 72 hrs by CCK-8 assay; type: functional; conditions: read-out: Activity
SW837 [11] = test: Antiproliferative activity against human SW837 cells expressing KRAS G12C mutant assessed as relative cell viability at 100 nM incubated for 72 hrs by CCK-8 assay; type: functional; conditions: read-out: Activity
MIA PaCa-2 [12] = test: Antiproliferative activity against human MIA PaCa-2 cells expressing KRAS G12C mutant assessed as relative cell viability at 100 nM incubated for 72 hrs by CCK-8 assay; type: functional; conditions: read-out: Activity
Calu-1 [13] = test: Antiproliferative activity against human Calu-1 cells expressing KRAS G12C mutant assessed as relative cell viability at 100 nM incubated for 72 hrs by CCK-8 assay; type: functional; conditions: read-out: Activity
[14] = Cmax in ICR mouse at 30 mg/kg, ip measured after 24 hrs by LC-MS/MS analysis; type: ADME, organism-based; conditions: in vivo
[15] = AUC (0 to infinity) in ICR mouse at 30 mg/kg, ip measured after 24 hrs by LC-MS/MS analysis; type: ADME, organism-based; conditions: in vivo
NCI-H358 [16] = test: Inhibition of RAF-MEK-ERK pathway in human NCI-H358 cells assessed as decrease in ERK phosphorylation at 100 nM incubated for 6 to 8 days by Western blot analysis; type: cell-based; conditions: time 6-8 day
[17] = Half life in ICR mouse at 2 mg/kg, iv measured after 24 hrs by LC-MS/MS analysis; type: ADME, organism-based; conditions: in vivo
[18] = Cmax in ICR mouse at 2 mg/kg, iv measured after 24 hrs by LC-MS/MS analysis; type: ADME, organism-based; conditions: in vivo
[19] = Tmax in ICR mouse at 30 mg/kg, ip measured after 24 hrs by LC-MS/MS analysis; type: ADME, organism-based; conditions: in vivo
[20] = AUC (0 to t) in ICR mouse at 30 mg/kg, ip measured after 24 hrs by LC-MS/MS analysis; type: ADME, organism-based; conditions: in vivo
MIA PaCa-2 [21] = test: Inhibition of RAF-MEK-ERK pathway in human MIA PaCa-2 cells assessed as decrease in ERK phosphorylation at 100 nM incubated for 6 to 8 days by Western blot analysis; type: cell-based; conditions: time 6-8 day
[22] = AUC (0 to infinity) in ICR mouse at 2 mg/kg, iv measured after 24 hrs by LC-MS/MS analysis; type: ADME, organism-based; conditions: in vivo
[23] = Half life in ICR mouse at 30 mg/kg, ip measured after 24 hrs by LC-MS/MS analysis; type: ADME, organism-based; conditions: in vivo
[24] = Inhibition of PI3K-AKT-mTOR pathway in human MIA PaCa-2 cells assessed as decrease in […] phosphorylation at 100 nM incubated for 6 to 8 days by Western blot analysis; type: cell-based; conditions: time 6-8 day
[25] = AUC (0 to t) in ICR mouse at 2 mg/kg, iv measured after 24 hrs by LC-MS/MS analysis; type: ADME, organism-based; conditions: in vivo
[26] = Clearance in ICR mouse at 2 mg/kg, iv measured after 24 hrs by LC-MS/MS analysis; type: ADME, organism-based; conditions: in vivo
[27] = Inhibition of PI3K-AKT-mTOR pathway in human NCI-H358 cells assessed as decrease in […] phosphorylation at 100 nM incubated for 6 to 8 days by Western blot analysis; type: cell-based; conditions: time 6-8 day
[28] = Volume of distribution at steady state in ICR mouse at 2 mg/kg, iv measured after 24 hrs by LC-MS/MS analysis; type: ADME, organism-based; conditions: in vivo

| Compound | IC50 (ASPC1) [µM] | IC50 (MIA PaCa-2 [7]) [nM] | IC50 (HepG2) [µM] | IC50 (NCI-H358 [8]) [nM] | IC50 at 72 h [6] [µM] | viability at 0.1 µM (NCI-H23 [9]) [%] | viability at 0.1 µM (NCI-H358 [10]) [%] | viability at 0.1 µM (SW837 [11]) [%] | viability at 0.1 µM (MIA PaCa-2 [12]) [%] | viability at 0.1 µM (Calu-1 [13]) [%] | further results |
| --- | --- | --- | --- | --- | --- | --- | --- | --- | --- | --- | --- |
| Cn1c(=O)n(-c2ccc(C(C)(C)C#N)cc2)c2c3cc(-c4cnc5ccccc5c4)ccc3ncc21 [DACTOLISIB] |  |  |  |  |  |  |  |  |  |  | viability at 0.05 µM (NCI-H358 [1]): 0.77%; viability at 0.05 µM (Calu-1 [2]): 0.88%; viability at 0.05 µM (NCI-H23 [3]): 0.79%; viability at 0.05 µM (SW837 [4]): 0.82%; viability at 0.05 µM (MIA PaCa-2 [5]): 0.7% |
| CCN1CCN(c2ccc(Nc3cc(N(C)C(=O)Nc4c(Cl)c(OC)cc(OC)c4Cl)ncn3)cc2)CC1 [INFIGRATINIB] |  |  |  |  |  | 0.89 | 0.88 | 0.85 | 0.84 | 0.86 |  |
| Cc1ccc(NC(=O)c2ccnc(C(F)(F)F)c2)cc1-c1cc(OCCO)nc(N2CCOCC2)c1 [NAPORAFENIB] |  |  |  |  |  | 0.82 | 0.81 | 0.85 | 0.79 | 0.9 |  |
| NC1(c2ccc(-c3nc4ccn5c(=O)[nH]nc5c4cc3-c3ccccc3)cc2)CCC1 [MK-2206] |  |  |  |  |  | 0.85 | 0.88 | 0.84 | 0.92 | 0.82 |  |

Continued, in another order:

| IC50 (ASPC1) [µM] | IC50 (MIA PaCa-2 [7]) [nM] | IC50 (HepG2) [µM] | IC50 (NCI-H358 [8]) [nM] | Compound | IC50 at 72 h [6] [µM] | viability at 0.1 µM (NCI-H23 [9]) [%] | viability at 0.1 µM (NCI-H358 [10]) [%] | viability at 0.1 µM (SW837 [11]) [%] | viability at 0.1 µM (MIA PaCa-2 [12]) [%] | viability at 0.1 µM (Calu-1 [13]) [%] | further results |
| --- | --- | --- | --- | --- | --- | --- | --- | --- | --- | --- | --- |
| > 10 | 529 | > 10 | 562 | C=CC(=O)N1CCN(c2nc(=O)n(-c3c(C)ccnc3C(C)C)c3nc(-c4c(F)cccc4OCc4cn(CC(=O)N[C@H](C(=O)N5C[C@H](O)C[C@H]5C(=O)NCc5ccc(-c6scnc6C)cc5)C(C)(C)C)nn4)c(F)cc23)[C@@H](C)C1 | > 10 |  |  |  |  |  |  |
| > 10 | 18 | > 10 | 12 | C=CC(=O)N1CCN(c2nc(=O)n(-c3c(C)ccnc3C(C)C)c3nc(-c4c(O)cccc4F)c(F)cc23)[C@@H](C)C1 [SOTORASIB] | > 10 |  |  |  |  |  | Cmax [14]: 9840 ng/mL; AUC(0-inf) [15]: 9450 ng·h/mL; inhibition (NCI-H358 [16]): inactive; t1/2 [17]: 15.1 min; Cmax [18]: 863 ng/mL; Tmax [19]: 15 min; AUC(0-t) at 24 h [20]: 9440 ng·h/mL; inhibition (MIA PaCa-2 [21]): inactive; AUC [22]: 312 ng·h/mL; half-life [23]: 238 min; inhibition [24]: inactive; AUC(0-t) at 24 h [25]: 311 ng·h/mL; clearance [26]: 110 mL/min/kg; inhibition [27]: inactive; Vdss [28]: 1.62 L/kg |
| > 10 | 434 | > 10 | 631 | C=CC(=O)N1CCN(c2nc(=O)n(-c3c(C)ccnc3C(C)C)c3nc(-c4c(F)cccc4OCCOCC(=O)Nc4cccc5c4CN(C4CCC(=O)NC4=O)C5=O)c(F)cc23)[C@@H](C)C1 (stereo not given in full) | > 10 |  |  |  |  |  |  |
| > 10 | 690 | > 10 | 765 | C=CC(=O)N1CCN(c2nc(=O)n(-c3c(C)ccnc3C(C)C)c3nc(-c4c(F)cccc4OCCOCCOCC(=O)Nc4cccc5c4CN(C4CCC(=O)NC4=O)C5=O)c(F)cc23)[C@@H](C)C1 (stereo not given in full) | > 10 |  |  |  |  |  |  |
| > 10 | 660 | > 10 | 463 | C=CC(=O)N1CCN(c2nc(=O)n(-c3c(C)ccnc3C(C)C)c3nc(-c4c(F)cccc4OCc4cn(CCCCC(=O)N[C@H](C(=O)N5C[C@H](O)C[C@H]5C(=O)NCc5ccc(-c6scnc6C)cc5)C(C)(C)C)nn4)c(F)cc23)[C@@H](C)C1 | > 10 |  |  |  |  |  |  |
